Values of other authors, collected in patent publication US20040077556A1, “Compositions and methods for promoting weight loss, thermogenesis, appetite suppression, lean muscle mass, increasing metabolism and boosting energy levels, and use as a dietary supplement in mammals” (priority 2002, published 2004).
Like-named read-outs stand apart in the source and are kept apart here.

Experiments:
[1] = system: brown adipose tissue thermogenesis
[2] = cold-exposed rats

For O=C(O[C@@H]1Cc2c(O)cc(O)cc2O[C@@H]1c1cc(O)c(O)c(O)c1)c1cc(O)c(O)c(O)c1 [EGCG, (2R,3R)-2-(3,4,5-Trihydroxyphenyl)-3,4-dihydro-1[2H]-benzopyran-3,5,7-triol 3-(3,4,5-trihydroxybenzoate)], the increase in thermogenesis ([1]; EGCG alone, 200 μM) is given as 40% and the effect on thermogenesis ([1]; EGCG alone, 50 and 100 μM) is given as “no effect”.

In the case of O=c1c(O)c(-c2ccc(O)c(O)c2)oc2cc(O)ccc12 [Fisetin, 3,3′,4′,7-tetrahydroxyflavone], the “increase in cAMP” value (cAMP) is given as “dose-dependent increase”.

In the case of NCCc1ccccc1 [PEA, phenylethylamine], the “decrease of food intake” value (15 mg per kg of bodyweight per day) is given as “roughly one-third”, the “maximum reduction of food intake” value (50 mg per kg of bodyweight) is given as “roughly twenty” and the “reduction of food intake” value (15-50 mg per kg of bodyweight) is given as 20-30%. For the same compound, the “tolerance to appetite-reducing effect” value (after four weeks) was “no tolerance”.

In the case of Cn1c(=O)c2[nH]cnc2n(C)c1=O.NCCN [aminophylline, theophylline ethylenediamine], the “increase of maximum thermogenesis” value ([2]; fed) is given as 14.4%, the “increase of maximum thermogenesis” value ([2]; unfed) is given as 19.4% and the “noradrenaline-stimulated thermogenesis after pretreatment” value ([2]; unfed, to levels seen in fed rats, dropped 18.2 percent without pretreatment) is given as “restored”.

For Cn1c(=O)c2c(ncn2C)n(C)c1=O [caffeine], the effect on thermogenesis ([1]; caffeine alone) is listed as “little or no effect”.

In the case of O=c1c(O)c(-c2ccc(O)c(O)c2)oc2cc(O)cc(O)c12 [quercetin, 3,3′,4′,5-7-pentahydroxyflavone], the “increase in cAMP” value (cAMP) is given as “dose-dependent increase”.
